Tests used:
COX-2 = biological target: T1, COX-2 (Ovis aries, UniProt P79208); test: COX-2-catalyzed prostaglandin biosynthesis assay in vitro; assay type: biochemical, sheep; conditions: for inhibition at 10 µg/mL: 10 μg/mL, COX-2 from sheep placenta
T1 construct: isolated from sheep placenta, purity 70%; purchased Cayman Chemical Company; host or cells: sheep placenta (tissue isolate)
T1 sequence (P79208 17-603): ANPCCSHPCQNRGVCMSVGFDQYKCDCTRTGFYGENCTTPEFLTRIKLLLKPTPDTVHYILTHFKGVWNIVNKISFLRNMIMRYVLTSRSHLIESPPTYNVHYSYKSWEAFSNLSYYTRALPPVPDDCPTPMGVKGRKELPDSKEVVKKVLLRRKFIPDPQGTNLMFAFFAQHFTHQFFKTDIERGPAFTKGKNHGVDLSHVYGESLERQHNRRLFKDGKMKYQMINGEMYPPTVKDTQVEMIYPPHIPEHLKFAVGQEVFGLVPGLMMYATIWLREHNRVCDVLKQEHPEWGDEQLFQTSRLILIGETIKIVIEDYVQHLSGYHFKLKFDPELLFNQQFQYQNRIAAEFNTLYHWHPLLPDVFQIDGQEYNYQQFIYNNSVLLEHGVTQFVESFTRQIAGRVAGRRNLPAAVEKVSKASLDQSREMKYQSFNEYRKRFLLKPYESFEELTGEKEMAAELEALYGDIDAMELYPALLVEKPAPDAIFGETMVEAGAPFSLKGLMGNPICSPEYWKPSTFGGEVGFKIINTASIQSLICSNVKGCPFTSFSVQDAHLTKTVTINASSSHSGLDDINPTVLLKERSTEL
Description: (§1) Experiments were performed according to Futaki et al. with modification. In brief, 200 U of COX-1 or COX-2 enzyme was suspended in 0.1 M Tris-HCl buffer (PH 7.5) containing hematin (1 μM) and phenol (2 mM), as co-factors. The reaction medium was preincubated with sample for 2 min at 37 °C, and 51.4 μM of […] arachidonic acid (Sigma, St. Louis, MO, USA) was added and incubated for 2 min at 37 °C. To terminate the reaction and extract PGE2, 400 μL of n-hexane/EtOAc (2:1, V/V) was added to the reaction mixture and the preparation was centrifuged at 2,000 rpm for 1 min. The organic solvent phase was discarded. The extraction procedure was repeated twice, then 50 μL EtOH was added to the aqueous phase, and the preparation was at 2,000 rpm for 1 min. The amount of PGE2 was measured by radioimmunoassay using a liquid scintillation counter. COX-1 (EC1.14.99.1, isolated from ram seminal vesicles; Cayman Chemical Company, Ann Arbor, MI, USA) and COX-2 (isolated from sheep placenta, purity 70%; Cayman Chemical Company) were used.

5-LO = biological target: T2, 5-LO (Rattus norvegicus, UniProt P12527); test: Measurement of RBL-1 5-lipoxygenase activity; assay type: biochemical; conditions: RBL-1 cell homogenate; for IC50: triplicate five-point titration; for inhibition at 10 µg/mL: 10 μg/mL
T2 construct: RBL-1 cell homogenate (1.5 × 10^7 cells); endogenous in cells; host or cells: RBL-1 (rat basophilic leukemia-1) cell homogenate
T2 sequence (P12527 1-673): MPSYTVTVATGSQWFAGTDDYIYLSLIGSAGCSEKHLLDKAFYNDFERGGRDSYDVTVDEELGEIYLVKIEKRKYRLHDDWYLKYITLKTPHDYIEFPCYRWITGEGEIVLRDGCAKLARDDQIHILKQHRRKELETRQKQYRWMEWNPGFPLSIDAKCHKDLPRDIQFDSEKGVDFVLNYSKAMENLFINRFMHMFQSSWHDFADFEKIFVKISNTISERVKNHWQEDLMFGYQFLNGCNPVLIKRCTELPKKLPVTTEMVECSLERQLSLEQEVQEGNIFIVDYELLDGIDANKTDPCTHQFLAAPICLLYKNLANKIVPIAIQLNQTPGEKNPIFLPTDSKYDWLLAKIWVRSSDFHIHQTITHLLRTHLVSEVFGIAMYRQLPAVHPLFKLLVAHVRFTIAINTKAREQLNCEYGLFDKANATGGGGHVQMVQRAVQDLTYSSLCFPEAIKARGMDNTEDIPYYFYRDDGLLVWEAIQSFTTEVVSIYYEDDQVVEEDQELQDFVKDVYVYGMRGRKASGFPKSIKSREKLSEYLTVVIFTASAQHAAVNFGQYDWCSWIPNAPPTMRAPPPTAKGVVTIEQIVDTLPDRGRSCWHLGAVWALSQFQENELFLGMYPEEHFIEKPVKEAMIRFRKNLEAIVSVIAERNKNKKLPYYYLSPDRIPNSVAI
Description: The modified method of Blackman et al. was used. Rat basophilic leukemia-1 (RBL-1) cells were grown in RPMI-1640 medium containing 10% heat-inactivated newborn calf serum (NCS), penicillin 100 units/mL, and streptomycin […]. Cells were cultured at 37 °C in 5% CO2. The assay system (0.5 mL) consisted of 50 mM phosphate buffer (pH 7.4), the test compound, 2 mM CaCl2, 0.66 mM arachidonic acid, and RBL-1 cell homogenate (1.5 × 10^7 cells). Reaction mixtures were incubated at 37 °C for 3 min, and then MeOH (0.5 mL) was added to terminate the reaction. The mixture was centrifuged to remove the precipitated proteins, 5-HETE in the supernatant was analyzed by HPLC. The mixture was eluted through a Cosmosil 5C18 column (4.6 × 150 mm) at room temperature with 85% CH3CN at 235 nm.

COX-1 = biological target: T3, COX-1 (Ovis aries, UniProt P05979); test: COX-1-catalyzed prostaglandin biosynthesis assay in vitro; assay type: biochemical, ram; conditions: for inhibition at 10 µg/mL: 10 μg/mL, COX-1 from ram seminal vesicles; for IC50: triplicate five-point titration
T3 construct: isolated from ram seminal vesicles; purchased Cayman Chemical Company; host or cells: ram seminal vesicles (tissue isolate)
T3 sequence (P05979 25-600): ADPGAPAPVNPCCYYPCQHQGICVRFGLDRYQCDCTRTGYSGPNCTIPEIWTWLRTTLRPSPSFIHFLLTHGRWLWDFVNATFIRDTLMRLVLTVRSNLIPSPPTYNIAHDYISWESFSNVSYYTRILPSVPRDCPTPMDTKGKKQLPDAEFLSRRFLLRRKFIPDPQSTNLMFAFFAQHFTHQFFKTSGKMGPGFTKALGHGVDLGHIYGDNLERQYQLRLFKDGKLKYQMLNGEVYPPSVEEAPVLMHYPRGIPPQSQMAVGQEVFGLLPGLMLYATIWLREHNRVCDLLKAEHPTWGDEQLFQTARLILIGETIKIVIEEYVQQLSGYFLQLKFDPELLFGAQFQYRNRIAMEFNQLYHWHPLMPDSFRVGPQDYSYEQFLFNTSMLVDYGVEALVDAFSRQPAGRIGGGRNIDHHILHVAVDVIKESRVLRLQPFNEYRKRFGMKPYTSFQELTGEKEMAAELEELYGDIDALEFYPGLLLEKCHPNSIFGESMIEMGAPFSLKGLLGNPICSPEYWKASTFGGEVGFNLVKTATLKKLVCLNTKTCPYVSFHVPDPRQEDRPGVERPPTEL
Description: as §1

inhibitory activities against COX-2 (in words) (COX-2)	IC50 (5-LO) [µM]	inhibition at 10 µg/mL (COX-2) [%]	inhibition at 10 µg/mL (5-LO) [%]	inhibition at 10 µg/mL (COX-1) [%]	IC50 (COX-1) [µM]	Structure (SMILES)
not apparent	15.1					C[C@]12c3c(ccc(O)c3C=C3C(CO)=CC(=O)[C@@H]31)O[C@@H]2O [Compound 1]
	15.1	7.5	84.7	90.5	47.7	CC(C)O[C@H]1Oc2ccc(O)c3c2[C@@]1(C)[C@H]1C(=O)C=C(CO)C1=C3 [Compound 1a, 5-hydroxy-7-hydroxymethyl-1-isopropoxy-9b-methyl-9a,9b-dihydro-H-2-oxa-cyclopenta[d]acenaphthylen-9-one]
		1.7	14.9	40.2		C=C1CC[C@H]2[C@](C)(COC(C)=O)CCC[C@]2(C)[C@H]1CO[C@@H](C(=O)O)[C@H](CC(=O)O)C(=O)OC [Compound 3, Cryptoporic acid P]
	204	10.3	50.1	66.5	78.8	C=C1CC[C@H]2[C@](C)(COC(C)=O)CCC[C@]2(C)[C@H]1CO[C@@H](C(=O)OC)[C@H](CC(=O)O)C(=O)OC [Compound 4, Cryptoporic acid Q]
		19	28.9	35.8		C=C1CC[C@H]2[C@](C)(CO)CCC[C@]2(C)[C@H]1CO[C@@H](C(=O)O)[C@H](CC(=O)O)C(=O)OC [Compound 6, cryptoporic acid N]
